Calls of active or inactive are those of the source. No cut-off for these calls is given here.
Assays:
[1] = biological target: T1, Protein deacetylase HDAC6 (Homo sapiens) (UniProt Q9UBN7); test: Inhibition of HDAC6 (unknown origin) using p53 residues 379 to 382 [RHKK(Ac)] as fluorogenic substrate assessed as residual activity at 3.33 x 10^-6M (reference value: 101.06%); conditions: dose 3.33 10^-6M
T1 sequence (whole entry): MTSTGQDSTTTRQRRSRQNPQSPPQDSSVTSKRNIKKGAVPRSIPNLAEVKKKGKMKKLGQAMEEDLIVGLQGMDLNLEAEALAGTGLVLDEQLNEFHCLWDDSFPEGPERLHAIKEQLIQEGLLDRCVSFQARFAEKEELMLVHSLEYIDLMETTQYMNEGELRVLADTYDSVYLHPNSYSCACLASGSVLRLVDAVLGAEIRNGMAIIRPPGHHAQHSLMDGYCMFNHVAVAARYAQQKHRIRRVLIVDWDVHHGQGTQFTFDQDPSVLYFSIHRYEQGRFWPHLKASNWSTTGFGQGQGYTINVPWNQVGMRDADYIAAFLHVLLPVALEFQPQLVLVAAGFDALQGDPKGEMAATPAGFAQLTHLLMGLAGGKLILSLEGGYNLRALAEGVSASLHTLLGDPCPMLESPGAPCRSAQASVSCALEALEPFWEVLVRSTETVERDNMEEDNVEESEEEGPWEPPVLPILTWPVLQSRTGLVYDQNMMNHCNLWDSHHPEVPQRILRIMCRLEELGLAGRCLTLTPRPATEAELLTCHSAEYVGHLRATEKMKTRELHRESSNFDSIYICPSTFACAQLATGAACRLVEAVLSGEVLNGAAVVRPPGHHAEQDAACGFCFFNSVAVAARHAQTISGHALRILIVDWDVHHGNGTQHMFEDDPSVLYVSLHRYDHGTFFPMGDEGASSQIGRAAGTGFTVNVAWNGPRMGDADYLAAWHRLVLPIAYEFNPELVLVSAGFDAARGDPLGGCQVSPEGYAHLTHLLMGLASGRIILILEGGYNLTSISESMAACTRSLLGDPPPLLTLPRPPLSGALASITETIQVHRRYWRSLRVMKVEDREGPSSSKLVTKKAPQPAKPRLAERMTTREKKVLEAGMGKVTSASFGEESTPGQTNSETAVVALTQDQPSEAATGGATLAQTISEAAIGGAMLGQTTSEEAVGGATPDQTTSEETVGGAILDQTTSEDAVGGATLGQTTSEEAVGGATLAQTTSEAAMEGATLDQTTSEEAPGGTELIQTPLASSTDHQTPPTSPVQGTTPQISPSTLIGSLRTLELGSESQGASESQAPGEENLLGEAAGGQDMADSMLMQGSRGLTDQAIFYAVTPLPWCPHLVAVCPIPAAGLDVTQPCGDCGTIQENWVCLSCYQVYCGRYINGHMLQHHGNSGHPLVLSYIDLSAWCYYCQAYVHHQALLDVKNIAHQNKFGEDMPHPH

[2] = biological target: Histone deacetylase 9 (Homo sapiens) (UniProt Q9UKV0); test: Inhibition of HDAC9 (unknown origin) assessed as residual activity at 1.1 x 10^-6M (reference value: 97.55%); conditions: dose 1.1 10^-6M
Chain of Histone deacetylase 9 (Homo sapiens) (Q9UKV0 whole entry, the tested form may be a part): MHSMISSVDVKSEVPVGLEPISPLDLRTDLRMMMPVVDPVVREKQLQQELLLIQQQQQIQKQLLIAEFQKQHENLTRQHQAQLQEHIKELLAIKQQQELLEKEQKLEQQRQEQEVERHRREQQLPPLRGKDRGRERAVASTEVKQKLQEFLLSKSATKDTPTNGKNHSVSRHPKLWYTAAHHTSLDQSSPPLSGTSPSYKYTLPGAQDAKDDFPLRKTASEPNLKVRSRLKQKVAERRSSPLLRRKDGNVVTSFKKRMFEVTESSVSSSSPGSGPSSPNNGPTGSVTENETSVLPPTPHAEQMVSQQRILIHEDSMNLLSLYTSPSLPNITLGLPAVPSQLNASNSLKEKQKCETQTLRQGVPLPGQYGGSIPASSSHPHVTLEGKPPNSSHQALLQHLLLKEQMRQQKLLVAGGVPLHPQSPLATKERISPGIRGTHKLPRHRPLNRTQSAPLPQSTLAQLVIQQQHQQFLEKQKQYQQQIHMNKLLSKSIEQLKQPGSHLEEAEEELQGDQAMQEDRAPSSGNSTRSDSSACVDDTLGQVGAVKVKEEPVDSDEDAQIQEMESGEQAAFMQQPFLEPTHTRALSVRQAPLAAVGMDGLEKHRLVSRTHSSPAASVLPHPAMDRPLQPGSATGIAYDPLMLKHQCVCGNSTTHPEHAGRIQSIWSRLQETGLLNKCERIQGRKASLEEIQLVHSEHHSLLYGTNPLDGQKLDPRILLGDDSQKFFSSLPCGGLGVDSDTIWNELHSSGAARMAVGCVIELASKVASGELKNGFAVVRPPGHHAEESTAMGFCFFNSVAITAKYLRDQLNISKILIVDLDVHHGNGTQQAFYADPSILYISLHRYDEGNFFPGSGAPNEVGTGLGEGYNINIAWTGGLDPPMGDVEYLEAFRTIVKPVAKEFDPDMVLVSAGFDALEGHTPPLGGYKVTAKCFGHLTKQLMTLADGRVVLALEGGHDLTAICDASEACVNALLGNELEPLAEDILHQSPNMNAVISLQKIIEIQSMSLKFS

[3] = biological target: T1, Protein deacetylase HDAC6 (Homo sapiens); test: Inhibition of HDAC6 (unknown origin) using p53 residues 379 to 382 [RHKK(Ac)] as fluorogenic substrate assessed as residual activity at 1.52 x 10^-9M (reference value: 101.06%); conditions: dose 1.52 10^-9M
[4] = biological target: T2, Polyamine deacetylase HDAC10 (Homo sapiens) (UniProt Q969S8); test: Inhibition of HDAC10 (unknown origin) assessed as residual activity at 3.70 x 10^-7M (reference value: 101.54%); conditions: dose 3.7 10^-7M
T2 sequence (whole entry): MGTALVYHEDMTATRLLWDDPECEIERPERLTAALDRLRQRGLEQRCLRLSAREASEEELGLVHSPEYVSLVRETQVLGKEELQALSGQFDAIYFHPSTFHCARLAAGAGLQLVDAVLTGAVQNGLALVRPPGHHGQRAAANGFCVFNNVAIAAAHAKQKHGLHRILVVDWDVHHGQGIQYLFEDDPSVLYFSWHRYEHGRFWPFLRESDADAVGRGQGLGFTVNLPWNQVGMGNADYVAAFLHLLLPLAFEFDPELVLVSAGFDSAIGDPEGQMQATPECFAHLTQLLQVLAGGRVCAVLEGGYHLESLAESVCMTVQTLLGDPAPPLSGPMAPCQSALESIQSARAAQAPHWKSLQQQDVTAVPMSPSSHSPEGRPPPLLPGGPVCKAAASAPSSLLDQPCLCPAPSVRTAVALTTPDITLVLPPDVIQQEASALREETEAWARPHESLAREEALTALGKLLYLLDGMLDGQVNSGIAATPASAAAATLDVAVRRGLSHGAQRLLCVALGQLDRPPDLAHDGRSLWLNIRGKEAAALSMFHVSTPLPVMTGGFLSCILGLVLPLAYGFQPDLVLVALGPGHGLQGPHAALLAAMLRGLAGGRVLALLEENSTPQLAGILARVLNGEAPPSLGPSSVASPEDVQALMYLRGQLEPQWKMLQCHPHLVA

[5] = biological target: Histone deacetylase 4 (Homo sapiens) (UniProt P56524); test: Inhibition of HDAC4 (unknown origin) assessed as residual activity at 4.12 x 10^-8M (reference value: 98.90%); conditions: dose 4.12 10^-8M
Chain of Histone deacetylase 4 (Homo sapiens) (P56524 whole entry, the tested form may be a part): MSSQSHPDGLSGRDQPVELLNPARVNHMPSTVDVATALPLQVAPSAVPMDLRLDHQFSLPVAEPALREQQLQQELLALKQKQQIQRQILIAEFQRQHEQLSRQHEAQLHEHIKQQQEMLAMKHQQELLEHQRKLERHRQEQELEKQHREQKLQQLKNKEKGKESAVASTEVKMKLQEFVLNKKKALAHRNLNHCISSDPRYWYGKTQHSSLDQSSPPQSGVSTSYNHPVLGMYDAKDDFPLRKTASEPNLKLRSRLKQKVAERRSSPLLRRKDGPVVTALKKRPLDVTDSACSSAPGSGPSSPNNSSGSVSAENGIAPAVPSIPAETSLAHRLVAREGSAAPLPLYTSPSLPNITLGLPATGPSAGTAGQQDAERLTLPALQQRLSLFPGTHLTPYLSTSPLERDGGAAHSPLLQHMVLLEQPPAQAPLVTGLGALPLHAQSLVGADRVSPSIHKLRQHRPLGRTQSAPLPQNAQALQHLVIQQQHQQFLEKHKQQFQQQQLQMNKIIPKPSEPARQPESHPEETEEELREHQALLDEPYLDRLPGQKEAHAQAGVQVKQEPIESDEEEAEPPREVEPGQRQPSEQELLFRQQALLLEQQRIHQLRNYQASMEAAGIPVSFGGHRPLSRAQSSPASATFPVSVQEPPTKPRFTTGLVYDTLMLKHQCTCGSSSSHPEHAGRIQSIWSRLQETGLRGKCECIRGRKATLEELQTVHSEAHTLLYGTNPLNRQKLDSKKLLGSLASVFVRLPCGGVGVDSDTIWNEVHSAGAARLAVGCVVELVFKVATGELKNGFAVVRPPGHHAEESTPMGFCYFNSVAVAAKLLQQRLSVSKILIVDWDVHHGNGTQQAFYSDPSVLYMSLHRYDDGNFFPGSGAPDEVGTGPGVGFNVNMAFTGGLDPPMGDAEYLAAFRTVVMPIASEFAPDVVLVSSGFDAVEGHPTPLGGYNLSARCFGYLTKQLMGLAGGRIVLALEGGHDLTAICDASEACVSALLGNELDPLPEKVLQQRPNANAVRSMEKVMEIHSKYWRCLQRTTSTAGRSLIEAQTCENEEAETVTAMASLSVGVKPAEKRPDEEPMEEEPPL

Histone deacetylase 3 [6] = biological target: T3, Histone deacetylase 3 (Homo sapiens, UniProt O15379); test: Inhibition of HDAC3 (unknown origin) using p53 residues 379 to 382 [RHKK(Ac)] as fluorogenic substrate assessed as residual activity at 5.08 x 10^-10M (reference value: 103.08%); conditions: dose 5.08 10^-10M
T3 sequence (O15379 whole entry, the tested form may be a part): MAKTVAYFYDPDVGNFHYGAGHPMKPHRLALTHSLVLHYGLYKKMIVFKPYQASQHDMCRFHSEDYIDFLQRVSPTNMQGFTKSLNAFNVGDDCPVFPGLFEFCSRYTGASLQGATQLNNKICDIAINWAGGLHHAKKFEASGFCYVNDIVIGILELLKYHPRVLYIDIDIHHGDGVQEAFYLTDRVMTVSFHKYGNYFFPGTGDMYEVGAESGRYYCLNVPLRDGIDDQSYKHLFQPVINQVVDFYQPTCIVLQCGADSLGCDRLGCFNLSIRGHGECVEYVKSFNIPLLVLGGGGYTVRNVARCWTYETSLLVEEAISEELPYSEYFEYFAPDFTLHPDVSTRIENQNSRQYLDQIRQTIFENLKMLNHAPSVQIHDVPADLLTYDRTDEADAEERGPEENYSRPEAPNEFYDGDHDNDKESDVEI

Histone deacetylase 2 = Histone deacetylase 2 (Homo sapiens, UniProt Q92769); test: Inhibition of HDAC2 (unknown origin) assessed as residual activity at 3.70 x 10^-7M (reference value: 99.81%); conditions: dose 3.7 10^-7M
Chain of Histone deacetylase 2 (Q92769 whole entry): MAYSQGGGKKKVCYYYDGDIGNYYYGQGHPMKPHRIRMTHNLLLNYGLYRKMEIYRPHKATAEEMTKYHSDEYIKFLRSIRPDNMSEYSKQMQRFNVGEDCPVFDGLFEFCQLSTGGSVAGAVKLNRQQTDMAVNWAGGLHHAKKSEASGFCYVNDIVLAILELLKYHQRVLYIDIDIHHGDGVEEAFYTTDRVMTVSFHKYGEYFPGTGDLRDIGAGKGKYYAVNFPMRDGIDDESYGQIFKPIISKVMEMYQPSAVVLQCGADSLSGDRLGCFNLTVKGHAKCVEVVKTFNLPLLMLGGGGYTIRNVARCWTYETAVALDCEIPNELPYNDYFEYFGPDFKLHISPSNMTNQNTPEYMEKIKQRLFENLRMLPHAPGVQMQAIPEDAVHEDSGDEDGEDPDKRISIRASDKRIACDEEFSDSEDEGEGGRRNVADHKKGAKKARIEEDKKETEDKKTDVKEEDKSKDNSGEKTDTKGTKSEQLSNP

FaDu = test: cells; type: functional, cell-based; conditions: Homo sapiens
Description: Antiproliferative activity against human FaDu cells assessed as inhibition of cell growth by MTT assay

Histone deacetylase 3 [7] = biological target: T3, Histone deacetylase 3; test: Inhibition of HDAC3 (unknown origin) using p53 residues 379 to 382 [RHKK(Ac)] as fluorogenic substrate assessed as residual activity at 1.52 x 10^-9M (reference value: 103.08%); conditions: dose 1.52 10^-9M
HL-60 [8] = test: Downregulation of PAR protein expression in human HL-60 cells at 0.5 to 1 times IC50 measured after 24 hrs by Western blot analysis; type: functional, cell-based
HL-60 [9] = test: Induction of apoptosis in human HL-60 cells assessed as cell shrinkage at 0.5 to 1 times IC50 by DAPI staining based microscopic analysis; type: functional

Activity [1]: 105%
Activity [2]: 93%
Activity [3]: 96.7%
Activity [4]: 94.8%
Activity [5]: 96%
Activity (Histone deacetylase 3 [6]): 107%
Activity (Histone deacetylase 2): 33.5%
IC50 (FaDu): > 10 µM
Activity (Histone deacetylase 3 [7]): 97.7%
Structure (SMILES): NC(=O)c1cccc2[nH]c(-c3ccc(NCc4ccc(C(=O)Nc5ccccc5N)cc4)cc3)nc12
Activity (HL-60 [8]): Dose-Dependent Effect
Activity (HL-60 [9]): inactive

— ChEMBL document CHEMBL5550160, “Leveraging a rationally designed veliparib-based anilide eliciting anti-leukemic effects for the design of pH-responsive polymer nanoformulation” (Eur J Med Chem, 2024)
